Test [1] has as its target FAD-linked sulfhydryl oxidase ALR (Homo sapiens, UniProt P55789). The test can be described thus: inhibitors of human ALR sulfhydryl oxidase, dose response, biochemical, H2O2 detection, luminescence, cherry-pick (AID 493248).
The subject of test [2] is Escherichia coli. Briefly: microbe, parasite or virus in culture.
The subject of test [3] is HEK293. Briefly: cells. As to conditions: Homo sapiens.
The target in test [4] is Nucleotide-binding oligomerization domain-containing protein 2 (Homo sapiens, UniProt Q9HC29). Briefly: PubChem AID 2334. It is filed as functional.
Test [5] concerns the target Tumor necrosis factor (Homo sapiens, UniProt P01375). Briefly: TNFa-triggered NF-kB activation inhibitors, SAR follow-up, cell-based, revised (AID 2337). The test is classed as functional.
For test [6], the target named is T1, Nucleotide-binding oligomerization domain-containing protein 1 (Homo sapiens, UniProt Q9Y239).
T1 sequence (Q9Y239 whole entry): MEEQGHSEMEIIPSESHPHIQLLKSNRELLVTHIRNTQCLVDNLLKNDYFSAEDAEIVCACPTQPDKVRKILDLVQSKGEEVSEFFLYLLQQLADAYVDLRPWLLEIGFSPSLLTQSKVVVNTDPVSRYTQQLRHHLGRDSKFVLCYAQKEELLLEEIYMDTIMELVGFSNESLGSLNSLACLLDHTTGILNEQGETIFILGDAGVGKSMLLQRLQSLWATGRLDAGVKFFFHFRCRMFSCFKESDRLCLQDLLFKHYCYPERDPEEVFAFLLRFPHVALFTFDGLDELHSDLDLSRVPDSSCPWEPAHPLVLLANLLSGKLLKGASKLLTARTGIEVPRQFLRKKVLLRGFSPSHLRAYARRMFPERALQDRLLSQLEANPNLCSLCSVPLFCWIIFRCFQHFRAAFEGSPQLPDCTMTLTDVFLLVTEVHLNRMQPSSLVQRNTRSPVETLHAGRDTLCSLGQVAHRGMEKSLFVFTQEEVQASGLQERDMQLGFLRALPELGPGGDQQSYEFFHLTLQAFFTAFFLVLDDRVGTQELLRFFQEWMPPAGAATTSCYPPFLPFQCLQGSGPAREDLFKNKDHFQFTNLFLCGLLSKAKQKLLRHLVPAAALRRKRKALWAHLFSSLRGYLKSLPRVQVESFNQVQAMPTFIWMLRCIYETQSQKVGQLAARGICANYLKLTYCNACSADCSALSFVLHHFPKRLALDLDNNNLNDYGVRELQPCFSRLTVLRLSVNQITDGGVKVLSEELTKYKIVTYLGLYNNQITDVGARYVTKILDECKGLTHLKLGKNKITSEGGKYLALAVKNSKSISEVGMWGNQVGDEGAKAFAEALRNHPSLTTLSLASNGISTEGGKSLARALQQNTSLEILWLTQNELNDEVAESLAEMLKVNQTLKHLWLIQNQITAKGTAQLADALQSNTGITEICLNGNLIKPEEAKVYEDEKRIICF
Briefly: NOD1 signaling inhibitors, SAR follow-up, revised (AID 2333). It is filed as functional.

Test [7] can be described thus: cells. The test is classed as functional.
A short description of test [8]: Vero E6 cell cytotoxicity, dose response, cytotoxicity control for non-replicating M. tuberculosis project, secondary assay (AID 492998). The test is classed as functional, VeroE6. The settings on record: Vero C1008.
Test [9] can be described thus: THP-1 cell cytotoxicity, dose response, cytotoxicity control for non-replicating M. tuberculosis project (AID 489025). It is filed as functional.
Test [10] addresses T2, Cysteine protease ATG4B (Homo sapiens, UniProt Q9Y4P1).
T2 sequence (Q9Y4P1 whole entry): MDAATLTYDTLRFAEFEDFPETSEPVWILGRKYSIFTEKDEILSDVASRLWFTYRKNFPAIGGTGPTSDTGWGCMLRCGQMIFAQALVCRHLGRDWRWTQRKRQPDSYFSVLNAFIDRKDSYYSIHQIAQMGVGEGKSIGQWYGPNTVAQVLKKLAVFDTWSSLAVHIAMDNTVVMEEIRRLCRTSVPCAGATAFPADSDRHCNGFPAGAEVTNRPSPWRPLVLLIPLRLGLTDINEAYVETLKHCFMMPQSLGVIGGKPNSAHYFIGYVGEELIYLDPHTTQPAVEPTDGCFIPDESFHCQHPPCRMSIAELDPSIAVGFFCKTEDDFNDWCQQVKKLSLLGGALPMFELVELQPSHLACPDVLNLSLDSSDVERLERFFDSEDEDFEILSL
It is filed as functional.

Test [11] has as its target Phospholipase A2 (Homo sapiens, UniProt P04054). The test is classed as functional.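 Also: confirmatory dose-response counterscreen on phospholipase A2, testing hits that came from an ultra-high-throughput screen for ATG4B inhibitors.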
Test [12] concerns the target Dual specificity tyrosine-phosphorylation-regulated kinase 1A (Rattus norvegicus, UniProt Q63470). The test is classed as biochemical, Homo sapiens.
For test [13], the target named is T3, Protein skinhead-1 (Caenorhabditis elegans, UniProt P34707).
T3 sequence (P34707 whole entry): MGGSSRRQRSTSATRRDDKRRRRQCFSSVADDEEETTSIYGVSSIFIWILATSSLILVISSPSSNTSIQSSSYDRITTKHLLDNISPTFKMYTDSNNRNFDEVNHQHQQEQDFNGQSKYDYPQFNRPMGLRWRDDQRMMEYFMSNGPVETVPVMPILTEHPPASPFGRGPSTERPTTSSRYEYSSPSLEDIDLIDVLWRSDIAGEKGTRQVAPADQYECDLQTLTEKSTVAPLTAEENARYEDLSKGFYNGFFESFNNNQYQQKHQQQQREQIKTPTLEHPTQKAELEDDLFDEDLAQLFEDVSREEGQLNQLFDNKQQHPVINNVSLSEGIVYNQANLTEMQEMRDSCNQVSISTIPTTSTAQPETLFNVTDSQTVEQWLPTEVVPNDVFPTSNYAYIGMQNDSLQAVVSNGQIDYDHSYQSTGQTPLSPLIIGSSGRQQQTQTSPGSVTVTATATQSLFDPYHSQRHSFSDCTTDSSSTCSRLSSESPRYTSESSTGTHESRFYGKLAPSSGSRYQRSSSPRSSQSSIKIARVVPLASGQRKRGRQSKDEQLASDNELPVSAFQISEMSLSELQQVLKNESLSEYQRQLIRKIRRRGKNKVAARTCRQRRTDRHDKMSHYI
It is filed as functional.

Test [14] addresses T4, Polyadenylate-binding protein 1 (Homo sapiens, UniProt P11940). The test can be described thus: PABP1 MLLE–PAM2 interaction inhibitors, dose response, miRNA deadenylation inhibitor project, biochemical, fluorescence polarization, Cy5-PAM2 peptide, secondary (AID 602260). It is filed as functional. The settings on record: read-out: IC50_Mean. On the technique in general: In fluorescence polarisation assays a small probe gives low polarisation when free and higher when bound to something large.

Test [15] addresses T4, Polyadenylate-binding protein 1. Briefly: PABP1 MLLE–PAM2 binding inhibitor potency, dose response, biochemical, fluorescence polarization, FITC-PAM2 peptide (AID 602259). The test is classed as functional. The settings on record: read-out: IC50_Mean.
For test [16], the target named is Troponin, cardiac muscle (Homo sapiens, UniProt P19429+P45379+P63316). Briefly: Fluorescence-based biochemical high throughput dose response assay for activators of the calcium sensitivity of cardiac Regulated Thin Filaments (RTF). [Related pubchem assays (depositor defined):AID493008, AID493018, AID504382, AID504383]. The test is classed as protein-complex assay.

Test [17] addresses Glyceraldehyde-3-phosphate dehydrogenase (Homo sapiens, UniProt P04406).
For test [18], the target named is T5, Dual specificity protein phosphatase 6 (Rattus norvegicus, UniProt Q64346).
T5 sequence (Q64346 whole entry): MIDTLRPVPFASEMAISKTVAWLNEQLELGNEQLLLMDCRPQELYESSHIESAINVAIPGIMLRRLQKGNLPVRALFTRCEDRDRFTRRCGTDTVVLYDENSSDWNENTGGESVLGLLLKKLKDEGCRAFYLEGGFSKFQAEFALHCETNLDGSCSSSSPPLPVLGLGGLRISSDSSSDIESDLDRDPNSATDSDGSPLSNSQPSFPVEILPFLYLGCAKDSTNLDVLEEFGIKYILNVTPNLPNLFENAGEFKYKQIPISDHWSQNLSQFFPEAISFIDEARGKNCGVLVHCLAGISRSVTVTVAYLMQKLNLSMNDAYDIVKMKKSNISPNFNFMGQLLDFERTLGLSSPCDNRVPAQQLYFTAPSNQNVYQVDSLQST
It is filed as functional.

Test [19] addresses T5, Dual specificity protein phosphatase 6.
For test [20], the target named is T6, Tyrosine-protein phosphatase non-receptor type 7 (Homo sapiens, UniProt P35236).
T6 sequence (P35236 whole entry): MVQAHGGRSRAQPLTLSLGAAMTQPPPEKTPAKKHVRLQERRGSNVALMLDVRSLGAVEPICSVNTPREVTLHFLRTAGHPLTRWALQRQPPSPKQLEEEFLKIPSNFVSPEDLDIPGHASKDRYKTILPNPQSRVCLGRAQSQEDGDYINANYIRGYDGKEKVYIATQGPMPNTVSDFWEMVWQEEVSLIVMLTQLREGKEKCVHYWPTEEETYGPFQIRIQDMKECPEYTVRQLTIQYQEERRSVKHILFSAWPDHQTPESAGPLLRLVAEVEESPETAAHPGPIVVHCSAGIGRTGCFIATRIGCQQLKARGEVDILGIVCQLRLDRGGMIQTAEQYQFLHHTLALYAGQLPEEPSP
It is filed as functional.

In test [21] the target is Heat shock cognate 71 kDa protein (Homo sapiens, UniProt P11142). The test can be described thus: In Vitro Hsc70 Dose Response Fluorescence Polarization Assay. [Related pubchem assays: 1072 ].
Test [22] concerns the target Heat shock 70 kDa protein 1A (Homo sapiens, UniProt P0DMV8). Briefly: Hsp70 inhibitors, SAR follow-up, biochemical, fluorescence polarization (AID 1072).
Test [23] concerns the target T5, Dual specificity protein phosphatase 6. The test can be described thus: MKP-3 phosphatase inhibitors, primary screen, biochemical, rat enzyme, in vitro (AID 425).
The target in test [24] is T7, Carboxy-terminal domain RNA polymerase II polypeptide A small phosphatase 1 (Homo sapiens, UniProt Q9GZU7).
T7 sequence (Q9GZU7 whole entry): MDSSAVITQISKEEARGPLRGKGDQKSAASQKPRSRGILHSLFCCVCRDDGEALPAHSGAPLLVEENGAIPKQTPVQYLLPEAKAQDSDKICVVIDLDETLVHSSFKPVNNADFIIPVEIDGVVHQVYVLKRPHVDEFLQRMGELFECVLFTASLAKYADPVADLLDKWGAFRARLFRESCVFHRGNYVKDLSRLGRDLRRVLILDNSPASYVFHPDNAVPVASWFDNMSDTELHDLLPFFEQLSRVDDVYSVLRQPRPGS
The test can be described thus: inhibitors of CTDSP1, concentration-response testing, biochemical assay, absorbance-based, actives from ultra-high-throughput screening (AID 540297). The test is classed as functional.

Experimental findings from ChEMBL document CHEMBL1201862, “PubChem BioAssay data set” (2004) are described below.

SMILES strings stand for the structures. Calls of active or inactive are those of the source. A value given as a limit tells only on which side of the number the result lay.

A word on the AC50: it is the concentration at which the activity in the assay is half-maximal. The term CC50 denotes the concentration at which the toxic effect on the cells reaches its halfway point. Usually EC50 stands for the concentration at which the effect is half-maximal.

As for `O=C(c1cc(O)c(O)c([N+](=O)[O-])c1)c1ccccc1F`, the AC50 in [1] is 3.2 µM (active); in test [2], 95 µM (active).
As to `O=C(Cc1ccccc1)Nc1nc2ccccc2n1Cc1ccc(Cl)cc1`, the IC50 in test [3], in test [4], in test [5] and in [6] was > 20 µM (inactive) each time.
On to `CCC(=O)Nc1nc2ccccc2n1Cc1ccccc1`, for which the IC50 is > 20 µM (inactive) in test [3]; 6.75 µM (active) in test [7]; > 20 µM (inactive) in test [4]; > 20 µM (inactive) in [5]; > 20 µM (inactive) in test [6]. For the same compound, the CC50 in test [8] is > 20 µM (active); in test [9] it was > 40 µM (active).
As for `Cc1cc(NCc2ccc(F)cc2Cl)n2nnnc2n1`, the results for the IC50 in test [10] and in test [11] were 15.7 µM (active) and 12.1 µM (active), respectively.
In the case of `COc1cccc(-c2nnc(NC(=O)c3cccc(F)c3)o2)c1`, in [7], the IC50 was 3.03 µM (active). Further, the CC50 in [8] is 9 µM (active); in [9], 13 µM (active).
Consider `COc1ccccc1C1CCN(c2cc(O)ccc2[N+](=O)[O-])CC1`, for which, in test [12], the AC50 was 4.38 µM (active).
Regarding `COC(=O)C1=C(C)NC(=O)/C1=C\N(C)C`, the IC50 in test [13] was > 100 µM (inactive); in test [14], > 66 µM (inactive); in test [15], > 66 µM (inactive). In addition, the EC50 in [16] was > 71.5 µM (inactive).
On to `CCOC(=O)C1Nc2c(O)cc(C)cc2C2C=CCC12` (stereo not drawn), for which the IC50 in [17] was > 100 µM (not active); in [18] it was > 100 µM (inactive); in test [19], > 100 µM (inactive); in test [20], > 100 µM (not active).
Regarding `CN(c1ccccc1)S(=O)(=O)c1cccc(NC(=O)CN2C(=O)NC3(CCCC3)C2=O)c1`, the AC50 in test [2] was 40.1 µM (active).
Consider `Cc1cc(C)nc(SC(C)C(=O)N/N=C/c2cccs2)n1` (stereo not drawn), for which the half-maximal activity concentration (AC50) in [2] was 22.1 µM (active).
Regarding `O=C(Oc1ccc(-c2ccccc2)cc1)c1cccc2c1NC(C(=O)O)C1CC=CC21` (stereo not drawn), the IC50 in [17] is > 100 µM (not active); in [18], 3.5 µM (active); in test [19], 3.4 µM (active); in [21] it was > 100 µM (not active); in test [22] it was > 100 µM (not active); in [20] it was 5.62 µM (active).
Take `O=C(CSc1nnc2scc(-c3ccccc3)n12)Nc1nsc(-c2ccccc2)n1`: the IC50 in [23] is 11 µM (active); in test [17] it was 27.4 µM (active); in test [18] it was 9.41 µM (active); in [19], 6.9 µM (active); in test [21], > 100 µM (not active); in test [22], > 100 µM (not active). Moreover, the IC50 was 6.59 µM (active) in test [24] and 12.8 µM (active) in test [20].
